Tests used:
CREB-binding protein [1] = target: T1, CREB-binding protein (Homo sapiens, UniProt Q92793); assay: Inhibition of His6-tagged human CBP bromodomain (1081 to 1197 residues) expressed in Escherichia coli BL21 (DE3) incubated for 30 mins by HTRF assay
Target sequence in this assay (Q92793 whole entry, the tested form may be a part): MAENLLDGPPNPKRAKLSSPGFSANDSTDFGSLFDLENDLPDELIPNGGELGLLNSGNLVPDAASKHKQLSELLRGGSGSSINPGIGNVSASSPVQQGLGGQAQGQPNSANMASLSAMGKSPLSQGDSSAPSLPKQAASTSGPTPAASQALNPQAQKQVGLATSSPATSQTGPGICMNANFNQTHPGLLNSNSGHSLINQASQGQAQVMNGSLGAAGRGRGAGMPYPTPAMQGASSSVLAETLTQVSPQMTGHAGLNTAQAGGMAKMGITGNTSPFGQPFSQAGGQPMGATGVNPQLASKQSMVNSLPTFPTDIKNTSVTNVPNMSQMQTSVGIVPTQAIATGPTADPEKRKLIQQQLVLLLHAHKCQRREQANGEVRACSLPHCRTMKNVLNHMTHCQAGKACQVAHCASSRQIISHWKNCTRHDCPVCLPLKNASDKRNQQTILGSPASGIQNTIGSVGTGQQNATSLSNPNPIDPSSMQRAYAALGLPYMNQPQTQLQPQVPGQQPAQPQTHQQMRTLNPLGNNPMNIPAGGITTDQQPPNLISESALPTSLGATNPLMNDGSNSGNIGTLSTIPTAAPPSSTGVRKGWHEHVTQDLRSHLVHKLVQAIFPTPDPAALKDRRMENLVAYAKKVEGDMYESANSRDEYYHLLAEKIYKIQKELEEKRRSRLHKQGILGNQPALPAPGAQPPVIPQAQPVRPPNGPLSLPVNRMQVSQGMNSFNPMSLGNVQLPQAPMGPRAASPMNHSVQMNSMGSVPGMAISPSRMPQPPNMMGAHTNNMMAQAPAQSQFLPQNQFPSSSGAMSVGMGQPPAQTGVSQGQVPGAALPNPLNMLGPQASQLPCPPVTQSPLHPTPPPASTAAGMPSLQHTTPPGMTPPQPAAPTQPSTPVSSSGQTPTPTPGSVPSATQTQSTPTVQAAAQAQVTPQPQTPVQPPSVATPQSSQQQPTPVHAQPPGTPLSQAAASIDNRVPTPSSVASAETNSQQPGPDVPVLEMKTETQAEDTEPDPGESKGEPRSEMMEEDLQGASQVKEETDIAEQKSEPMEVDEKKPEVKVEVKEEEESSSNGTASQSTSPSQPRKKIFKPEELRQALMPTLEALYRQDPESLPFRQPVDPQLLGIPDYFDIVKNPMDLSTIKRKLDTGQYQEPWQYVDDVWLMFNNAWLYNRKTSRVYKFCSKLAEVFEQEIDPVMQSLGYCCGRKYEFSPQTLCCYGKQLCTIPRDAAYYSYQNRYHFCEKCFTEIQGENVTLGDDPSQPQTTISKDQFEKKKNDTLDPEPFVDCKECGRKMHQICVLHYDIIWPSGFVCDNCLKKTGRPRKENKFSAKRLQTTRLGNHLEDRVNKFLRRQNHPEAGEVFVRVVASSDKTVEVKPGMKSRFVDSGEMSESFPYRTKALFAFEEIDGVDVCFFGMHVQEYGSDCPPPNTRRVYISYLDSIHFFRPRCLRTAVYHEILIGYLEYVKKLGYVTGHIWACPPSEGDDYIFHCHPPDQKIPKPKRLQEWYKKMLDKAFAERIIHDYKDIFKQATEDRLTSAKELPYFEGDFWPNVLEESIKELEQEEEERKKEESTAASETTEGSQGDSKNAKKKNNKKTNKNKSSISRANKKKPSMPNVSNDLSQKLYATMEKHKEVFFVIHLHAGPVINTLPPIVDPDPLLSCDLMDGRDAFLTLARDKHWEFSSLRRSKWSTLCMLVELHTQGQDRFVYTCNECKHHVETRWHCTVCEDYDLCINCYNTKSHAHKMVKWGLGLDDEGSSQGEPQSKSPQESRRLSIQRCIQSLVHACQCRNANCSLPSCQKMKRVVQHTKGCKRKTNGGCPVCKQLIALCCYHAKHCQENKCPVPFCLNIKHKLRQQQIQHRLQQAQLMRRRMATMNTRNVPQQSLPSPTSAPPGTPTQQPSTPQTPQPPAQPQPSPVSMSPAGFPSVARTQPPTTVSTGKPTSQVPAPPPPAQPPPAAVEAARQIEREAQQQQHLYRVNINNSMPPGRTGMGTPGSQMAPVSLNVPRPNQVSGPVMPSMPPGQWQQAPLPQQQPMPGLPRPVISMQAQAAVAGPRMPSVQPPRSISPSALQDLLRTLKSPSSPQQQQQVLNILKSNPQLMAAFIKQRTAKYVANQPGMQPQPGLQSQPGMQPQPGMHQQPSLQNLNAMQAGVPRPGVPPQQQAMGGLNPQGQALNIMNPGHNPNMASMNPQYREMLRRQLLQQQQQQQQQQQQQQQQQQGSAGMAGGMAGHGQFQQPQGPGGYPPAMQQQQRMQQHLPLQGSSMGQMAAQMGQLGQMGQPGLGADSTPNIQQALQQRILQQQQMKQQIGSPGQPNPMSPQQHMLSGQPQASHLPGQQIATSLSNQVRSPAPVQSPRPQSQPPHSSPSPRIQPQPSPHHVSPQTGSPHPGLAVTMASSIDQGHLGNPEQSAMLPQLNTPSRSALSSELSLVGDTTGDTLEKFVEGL

[2] = Metabolic stability in rat liver microsomes assessed as parent compound remaining at 1 uM incubated for 45 mins in presence of NADPH by LC-MS/MS analysis; assay type: ADME, Microsome; details: read-out: Stability
CREB-binding protein [3] = target: T1, CREB-binding protein; assay: Binding affinity to His6-tagged human CBP bromodomain (1081 to 1197 residues) expressed in Escherichia coli BL21 (DE3) assessed as dissociation constant by ITC analysis
Target sequence in this assay (Q92793 whole entry, the tested form may be a part): as above

[4] = Hepatic clearance in rat liver microsomes at 1 uM incubated for 45 mins in presence of NADPH by LC-MS/MS analysis; assay type: ADME, Microsome
[5] = Half life in rat liver microsomes at 1 uM incubated for 45 mins in presence of NADPH by LC-MS/MS analysis; assay type: ADME, Microsome
in vitro = details: rat, liver microsomes
Description: Hepatic extraction ratio in rat liver microsomes at 1 uM incubated for 45 mins in presence of NADPH by LC-MS/MS analysis

[6] = Intrinsic clearance in rat liver microsomes at 1 uM incubated for 45 mins in presence of NADPH by LC-MS/MS analysis; assay type: ADME, Microsome; details: read-out: CLH
LNCaP C4-2B = assay: Antiproliferative activity against human LNCaP C4-2B cells assessed as inhibition of cell growth by Celltiter-Glo assay; assay type: functional, cell-based
CREB-binding protein [7] = target: T1, CREB-binding protein; details: dose 200.0 µM, time 30.0 min
Target sequence in this assay (Q92793 2-2442 limits assumed): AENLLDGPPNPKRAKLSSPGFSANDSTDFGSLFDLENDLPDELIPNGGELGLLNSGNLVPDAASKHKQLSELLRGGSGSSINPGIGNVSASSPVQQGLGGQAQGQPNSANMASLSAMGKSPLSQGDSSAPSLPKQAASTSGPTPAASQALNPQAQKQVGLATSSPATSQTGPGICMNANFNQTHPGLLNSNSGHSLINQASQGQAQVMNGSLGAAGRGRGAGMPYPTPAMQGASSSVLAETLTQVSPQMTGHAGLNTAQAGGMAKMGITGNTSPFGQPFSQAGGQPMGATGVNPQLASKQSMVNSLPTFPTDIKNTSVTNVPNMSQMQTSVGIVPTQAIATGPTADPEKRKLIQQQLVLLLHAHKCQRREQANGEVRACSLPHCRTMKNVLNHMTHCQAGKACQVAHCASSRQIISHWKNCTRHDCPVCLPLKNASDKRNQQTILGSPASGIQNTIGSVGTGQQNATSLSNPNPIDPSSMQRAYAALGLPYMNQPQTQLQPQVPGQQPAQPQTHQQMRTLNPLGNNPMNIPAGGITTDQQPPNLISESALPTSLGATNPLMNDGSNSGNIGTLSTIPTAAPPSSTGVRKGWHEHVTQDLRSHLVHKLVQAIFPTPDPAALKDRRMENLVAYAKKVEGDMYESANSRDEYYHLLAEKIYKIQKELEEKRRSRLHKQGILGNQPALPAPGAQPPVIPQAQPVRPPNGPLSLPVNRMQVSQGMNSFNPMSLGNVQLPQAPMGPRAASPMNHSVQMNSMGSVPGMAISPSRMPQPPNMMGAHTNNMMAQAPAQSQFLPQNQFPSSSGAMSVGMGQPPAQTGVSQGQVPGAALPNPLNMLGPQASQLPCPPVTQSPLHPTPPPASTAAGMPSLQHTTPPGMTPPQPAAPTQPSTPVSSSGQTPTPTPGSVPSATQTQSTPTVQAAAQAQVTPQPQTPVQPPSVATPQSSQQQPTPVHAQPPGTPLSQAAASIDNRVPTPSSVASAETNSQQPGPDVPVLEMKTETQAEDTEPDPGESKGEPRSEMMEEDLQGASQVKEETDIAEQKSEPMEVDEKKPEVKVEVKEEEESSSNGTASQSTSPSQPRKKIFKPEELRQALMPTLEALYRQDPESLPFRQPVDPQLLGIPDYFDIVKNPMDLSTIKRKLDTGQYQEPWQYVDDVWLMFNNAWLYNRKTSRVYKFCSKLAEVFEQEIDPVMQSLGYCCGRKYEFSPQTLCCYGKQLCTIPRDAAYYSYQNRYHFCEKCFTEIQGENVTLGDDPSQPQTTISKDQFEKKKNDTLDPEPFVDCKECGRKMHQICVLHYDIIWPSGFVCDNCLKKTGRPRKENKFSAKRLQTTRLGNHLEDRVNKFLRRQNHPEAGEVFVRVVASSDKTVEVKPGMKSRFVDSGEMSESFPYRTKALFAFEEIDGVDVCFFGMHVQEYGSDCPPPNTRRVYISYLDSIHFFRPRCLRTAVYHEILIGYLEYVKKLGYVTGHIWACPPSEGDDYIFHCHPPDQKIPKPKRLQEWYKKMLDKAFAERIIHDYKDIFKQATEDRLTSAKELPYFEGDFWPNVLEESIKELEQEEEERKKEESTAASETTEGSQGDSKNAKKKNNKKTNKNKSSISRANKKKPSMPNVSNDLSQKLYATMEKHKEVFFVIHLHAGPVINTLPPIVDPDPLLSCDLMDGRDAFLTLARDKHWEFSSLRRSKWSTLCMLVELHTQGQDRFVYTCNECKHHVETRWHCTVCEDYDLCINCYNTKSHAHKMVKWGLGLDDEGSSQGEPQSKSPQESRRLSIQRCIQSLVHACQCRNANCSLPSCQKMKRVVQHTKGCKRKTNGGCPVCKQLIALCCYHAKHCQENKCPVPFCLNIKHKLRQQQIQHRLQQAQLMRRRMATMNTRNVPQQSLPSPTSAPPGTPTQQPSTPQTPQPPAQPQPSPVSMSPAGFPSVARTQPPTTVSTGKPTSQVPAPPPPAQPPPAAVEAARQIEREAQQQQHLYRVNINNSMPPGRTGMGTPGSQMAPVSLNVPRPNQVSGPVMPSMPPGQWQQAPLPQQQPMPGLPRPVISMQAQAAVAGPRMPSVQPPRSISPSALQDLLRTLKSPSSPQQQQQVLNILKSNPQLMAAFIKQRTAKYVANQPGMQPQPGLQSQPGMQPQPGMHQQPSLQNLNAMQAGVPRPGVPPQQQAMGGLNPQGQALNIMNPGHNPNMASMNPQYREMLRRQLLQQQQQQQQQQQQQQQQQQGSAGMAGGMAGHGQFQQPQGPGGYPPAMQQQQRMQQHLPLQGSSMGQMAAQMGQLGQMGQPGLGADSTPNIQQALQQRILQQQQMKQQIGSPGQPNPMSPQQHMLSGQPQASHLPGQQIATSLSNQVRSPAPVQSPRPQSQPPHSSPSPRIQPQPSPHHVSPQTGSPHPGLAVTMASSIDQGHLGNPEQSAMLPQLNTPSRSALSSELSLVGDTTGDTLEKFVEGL

[8] = Metabolic stability in human liver microsomes assessed as parent compound remaining at 1 uM incubated for 45 mins in presence of NADPH by LC-MS/MS analysis; assay type: ADME, Microsome; details: read-out: Stability
[9] = Hepatic clearance in human liver microsomes at 1 uM incubated for 45 mins in presence of NADPH by LC-MS/MS analysis; assay type: ADME, Microsome; details: read-out: CLH
[10] = Intrinsic clearance in human liver microsomes at 1 uM incubated for 45 mins in presence of NADPH by LC-MS/MS analysis; assay type: ADME, Microsome; details: read-out: CLH
[11] = Half life in human liver microsomes at 1 uM incubated for 45 mins in presence of NADPH by LC-MS/MS analysis; assay type: ADME, Microsome
[12] = Hepatic extraction ratio in human liver microsomes at 1 uM incubated for 45 mins in presence of NADPH by LC-MS/MS analysis; assay type: ADME, Microsome; details: read-out: ERH

## COc1ccc2c(c1)c(C(=O)Nc1cc(C(=O)O)cc(-c3cnn(C)c3)c1F)cn2C(C)=O
CREB-binding protein [1]
  IC50: 0.178 µM
[2]
  remaining at 0.75 h, 1 µM: 7.7%
CREB-binding protein [3]
  Kd: 0.165 µM
[4]
  CLhep predicted at 1 µM: 42.7 mL/min/kg
[5]
  half-life at 1 µM: 13.1 min
In vitro
  hepatic extraction ratio at 0.75 h, 1 µM: 0.774
[6]
  CLint scaled at 1 µM: 189 mL/min/kg

## CC(C)C(=O)c1cc(C(=O)Nc2cc(CO)cc(-c3cnn(C)c3)c2F)c2cc(O)ccn12
LNCaP C4-2B
  IC50: 37 µM
CREB-binding protein [7]
  ΔTm: 1.8 °C

## COc1ccn2c(C(C)=O)cc(C(=O)Nc3cc(C(F)(F)F)cc(-c4cnn(C)c4)c3F)c2c1
LNCaP C4-2B
  IC50: > 50 µM
CREB-binding protein [7]
  ΔTm: 2.7 °C

## COc1ccn2c(C(C)=O)cc(C(=O)Nc3cc(CO)cc(-c4cnn(C)c4)c3F)c2c1
LNCaP C4-2B
  IC50: 9.57 µM
CREB-binding protein [1]
  IC50: 0.012 µM
CREB-binding protein [7]
  ΔTm: 8.4 °C

## COc1ccn2c(C(C)=O)cc(C(=O)Nc3cc(Cl)cc(-c4cnn(C)c4)c3F)c2c1
LNCaP C4-2B
  IC50: 9.28 µM
CREB-binding protein [1]
  IC50: 0.0552 µM
CREB-binding protein [7]
  ΔTm: 6 °C

## Cc1ncc2n1-c1ccc(Cl)cc1C(c1ccccc1F)=NC2 [MIDAZOLAM]
[8]
  remaining at 0.75 h, 1 µM: 0.55%
[9]
  CLint scaled at 1 µM: 19.9 mL/min/kg
[10]
  CLint scaled at 1 µM: 452 mL/min/kg
[2]
  remaining at 0.75 h, 1 µM: 4.5%
[4]
  CLhep predicted at 1 µM: 53 mL/min/kg
[11]
  half-life at 1 µM: 3.07 min
[5]
  half-life at 1 µM: 1.85 min
In vitro
  hepatic extraction ratio at 0.75 h, 1 µM: 0.961
[6]
  CLint scaled at 1 µM: 750 mL/min/kg
[12]
  hepatic extraction ratio at 0.75 h, 1 µM: 0.962

## Cn1cc(-c2cc(CO)cc(NC(=O)c3cc(C(=O)C4CC4)n4ccc(O)cc34)c2F)cn1
CREB-binding protein [7]
  ΔTm: 2.1 °C

## CC(=O)c1cc(C(=O)Nc2cc(CO)cc(-c3cnn(C4CC4)c3)c2F)c2cc(N)ccn12
LNCaP C4-2B
  IC50: 8.66 µM
CREB-binding protein [1]
  IC50: 0.00296 µM
CREB-binding protein [7]
  ΔTm: 10.5 °C

## CC(=O)c1cc(C(=O)Nc2cc(CO)cc(-c3cnn(C)c3)c2F)c2cc(CN)ccn12
LNCaP C4-2B
  IC50: 13.4 µM
CREB-binding protein [1]
  IC50: 0.0556 µM
CREB-binding protein [7]
  ΔTm: 8.7 °C

## CC(=O)c1cc(C(=O)Nc2cc(C(C)O)cc(-c3cnn(C4CC4)c3)c2F)c2cc(OC(=O)N(C)C)ccn12 (centres undefined)
LNCaP C4-2B
  IC50: 9.09 µM
CREB-binding protein [1]
  IC50: 0.0262 µM
CREB-binding protein [7]
  ΔTm: 10 °C

## CCc1ccn2c(C(C)=O)cc(C(=O)Nc3cc(CO)cc(-c4cnn(C)c4)c3F)c2c1
LNCaP C4-2B
  IC50: 50 µM
CREB-binding protein [1]
  IC50: 0.0218 µM
CREB-binding protein [7]
  ΔTm: 6.3 °C

## Cn1cc(-c2cc(CO)cc(NC(=O)c3cc(C(=O)C(C)(C)C)n4ccc(O)cc34)c2F)cn1
LNCaP C4-2B
  IC50: 33.9 µM
CREB-binding protein [7]
  ΔTm: 0.9 °C

## COc1ccn2c(C(C)=O)cc(C(=O)Nc3cc(C(N)=O)cc(-c4cnn(C)c4)c3F)c2c1
CREB-binding protein [7]
  ΔTm: 2.4 °C

## COc1ccn2c(C(C)=O)cc(C(=O)Nc3cc(F)cc(-c4cnn(C)c4)c3F)c2c1
LNCaP C4-2B
  IC50: > 50 µM
CREB-binding protein [1]
  IC50: 0.0696 µM
CREB-binding protein [7]
  ΔTm: 6.6 °C

## CCC(=O)c1cc(C(=O)Nc2cc(CO)cc(-c3cnn(C)c3)c2F)c2cc(O)ccn12
LNCaP C4-2B
  IC50: 34.9 µM
CREB-binding protein [1]
  IC50: 0.0785 µM
CREB-binding protein [7]
  ΔTm: 11.1 °C

From ChEMBL document CHEMBL5154675, “Design, Synthesis, and Biological Evaluation of 1-(Indolizin-3-yl)ethan-1-ones as CBP Bromodomain Inhibitors for the Treatment of Prostate Cancer” (J Med Chem, 2022)
